From US20190284192A1, “NITROGENOUS MACROCYCLIC COMPOUND, PREPARATION METHOD THEREFOR, PHARMACEUTICAL COMPOSITION AND APPLICATION THEREOF” (LUOXIN PHARMACEUTICAL (SHANGHAI) CO., LTD., priority 2016, published 2019)
Where two headings read alike, the source gives them in different places.

Experiments:
MV-4-11 cells = experiment: Inhibitory effect on MV-4-11 cells (CellTiter-Glo); type: cell-based; conditions: Homo sapiens, read-out: MV-4-11
SU-DHL-6 cells = experiment: Inhibitory effect on SU-DHL-6 cells (CellTiter-Glo); type: cell-based; conditions: Homo sapiens, read-out: SU-DHL-6
Procedure: Determinations of the inhibition of the compounds from the above embodiments against SU-DHL-6 cells, the detailed operation steps are as followed:
The 1st Day: Seed the Cells on the Plate
1. The cells were verified that they were in good conditions by observation under microscope;
2. The cells were transferred to a centrifuge tubes, after centrifuged at 1000 rpm for 5 min, the supernatant was discarded;
3. The complete substrate (1640+10% FBS) was added, then blown and patted into single cell suspension, counted by Vi-cell cytometer, the cell suspension was adjusted to desired cell density by the complete medium.
4. The cells were inoculated into a 96 well plate, the cell number was 12000/well at 100 μL per well, 100 μL complete medium was added into the black control;
5. 37° C., 5% CO2 culture overnight.
The 2nd Day: Addition of the Drugs
1. 1000× Compound Plate Preparation
1.1. The test compound was prepared into 10 mM working solution by using DMSO. Then the STS was prepared into 2 mM working solution by using DMSO.
1.2. In the round bottom 96 wells plate, the column 2 of row A to H was added into 60 μL 10 mM test compound (or STS) working solution, columns 3-11 were added into 40 μL DMSO, 20 μL drug solution was pipetted from the column 2 to the column 3, blown and patted for a homogeneous mixture; then 20 μL solution was pipetted from the column 3 to the column 4, blown and patted for a homogeneous mixture, sequently, the drug was diluted by 3 times, 10 concentrations in total. The columns 1 and 12 were supplemented with 40 μL of DMSO.
2. Intermediate plate preparation
A sterile V-bottom 96 deep well plate was used and in each well, 495 μL FBS-free PRMI 1640 medium was added, then 5 μL of the diluted compound (or DMSO) in the 1000× compound plate was pipetted into corresponding position of the V-bottom 96 well plate, blown and patted evenly.
3.1. The cell plate was taken out from the incubator and was observed under microscope. The diluted compound or DMSO in the intermediate plate was added into the cell plate, 11 μL each well.
3.2. The cell was continued to be cultured at 37° C., 5% CO2 for 72 hours.
The 5th Day: CellTiter-Glo Detection of the Cell Activity
1. The CellTiter-Glo buffer and the reaction substrate were taken out from the refrigerator, after balanced to r.t., the buffer was poured into a brown bottle containing the substrate, the bottle was upside down to have the substrate powder sufficientaly dissolved.
2. The cell was observed under microscope; the cell plate was balanced to r.t.
3. The prepared CellTiter-Glo was added into the 96 well plate, at 100 μL/well.
4. The cell plate was placed on a shaker for 10 min, followed by standing at r.t. for 10 min.
5. A white seal film was attached to the bottom of the well plate, and the chemiluminescence signal of each well was detected by the Enspire microplate detector.
6. XLfit was used for data processing. Inhibition rate %=(d-c)/(d-b)×100, while d is the signal value of the DMSO treated group, c is the signal value of the compound treated group, b is signal value of the blank control that only containing medium and DMSO without cells. The data was fitted using the f (x)205[fit=(A+((B−A)/(1+((C/x)^∧D))))] equation in the XLfit software.

BRD4 (BD1) = target: T1, BRD4 (BD1) (Homo sapiens, UniProt O60885); experiment: BRD4 (BD1) bromodomain binding, HTRF; conditions: 2 h incubation at r.t.
T1 construct: Each member comprises two tandem bromodomains (BD1 and BD2) for recognizing the acetylated lysine residues

BRD4 (BD2) = target: T2, BRD4 (BD2) (Homo sapiens, UniProt O60885); experiment: BRD4 (BD2) bromodomain binding, HTRF; conditions: 2 h incubation at r.t.
T2 construct: Each member comprises two tandem bromodomains (BD1 and BD2) for recognizing the acetylated lysine residues

[1] = Metabolic stability in human liver microsomes; type: in vitro ADME; conditions: human liver microsomes 0.5 mg/mL, NADPH, 37° C.; for CLint scaled at 1 µM: pH 7.4, read-out: HLM_CLint
Procedure: (§1) Determinations of the metabolic stability of the compound from the above embodiments, the detailed operation steps are as followed:
(§2) 1. Preparation of buffer C:
(§3) Buffer A: 1.0 L of 0.1 M potassium dihydrogen phosphate buffer (containing 1.0 mM EDTA);
(§4) Buffer B: 1.0 L of 0.1 M dipotassium hydrogen phosphate buffer (containing 1.0 mM EDTA);
(§5) Buffer C: 500 mL Buffer B was titrated with Buffer A to pH 7.4.
(§6) 2. 10 mM stock solution preparation:
(§7) 10 mM test compound: A certain amount of the test compound was weighed and dissolved in DMSO.
(§8) 10 mM control: 5.455 mg of ketanserin dissolved in 1 mL DMSO.
(§9) 3. Preparation of the drug solution:
(§10) 500 μM solution: 5 μL of 10 mM stock solution (see step 2) was added into 95 μL ACN;
(§11) 1.5 μM dosing solution (dissolved in liver microsome solution):
(§12) 18.75 μL of 20 mg/mL liver microsomes was added into 479.75 μL of Buffer C, then 1.5 μL of 500 μM solution was added and mixed gently by shaking.
(§13) 4. Preparation of 6 mM NADPH solution:
(§14) 15 mg NADPH was weighted, then added into 3 mL of buffer C to prepare a 6 mM NADPH solution.
(§15) 5. 30 µL of 1.5 μM dosing solution (see step 3) was added into the wells of the 96-well plate set at different time points (0 minutes, 5 minutes, 15 minutes, 30 minutes, 45 minutes), number of dulplicate sample is 2.
(§16) 6. Preparation of a 0 minutes sample: 135 μL ACN (with internal standard) was added to the 0 minutes well, followed by 15 µL of 6 mM NADPH solution.
(§17) 7. The 96-well plate containing 1.5 μM dosing solution and NADPH solution were preheated in a 37° C. water bath for 5 minutes.
(§18) 8. The 15 µL of 6 mM NADPH solution preheated was added into the wells set to 5 minutes, 15 minutes, 30 minutes, 45 minutes, then the reaction was initiated and started counting the time.
(§19) 10. The sample was vortexed for 10 min, and then centrifuged for 15 minutes on a centrifuge (Thermo Multifuge×3R) using 5594×g.
(§20) 11. 50 μL of the supernatant was taken from the centrifuged sample, transferred to a 96-well sample plate to which 100 μL of ultrapure water had already been added, mixed, and finally sent to LC-MS/MS for analysis.
(§21) Half time (T1/2)=0.693/K (K is the rate constant obtained by linear regression of the logarithm of the concentration as vertical coordinates and the culturing time as the abscissa)
(§22) 2. According to the equation formula bellow, Excel was used to plot the compound content versus reaction time, as well as half life calculation (min)
(§23) Y=(Y0−Plateau)×e^(−K*X)+Plateau
(§24) Y0 represents the compound content at 0 minutes; Y represents the compound content; X represents the time point; K represents degration rate constant of the compound; Plateau represents the lowest possible content of the compound (defined herein as 0).

[2] = Metabolic stability in mouse liver microsomes; type: in vitro ADME; conditions: mouse liver microsomes 0.5 mg/mL, NADPH, 37° C.; for CLint scaled at 1 µM: pH 7.4, read-out: MLM_CLint
Procedure: as §1, §2, §3, §4, §5, §6, §7, §8, §9, §10, §11, §12, §13, §14, §15, §16, §17, §18, §19, §20, §21, §22, §23, §24

[3] = tested on: MV-4-11 subcutaneous xenograft tumor; experiment: Anti-tumor efficacy in vivo, MV-4-11 subcutaneous xenograft model; parameters: species or system BALB/c nude mice; conditions: intragastric QD*14
Procedure: According to the growth of the cells, the treatment was passaged twice a week. When the cells are in the exponential growth phase, the cells are collected, counted, and inoculated.
Experimental protocol: 0.2 mL of cell suspension containing about 5×10^MV-4-11 cells (cell suspended in IMDM medium and added with 50% Matrigel) was inoculated subcutaneously into the right back of each mouse. Group administration was initiated when the average tumor volume reached approximately 136.94 mm^3 (day 15 post inoculation). Grouping method: Animals were weighed before dosing and tumor volume was measured. Grouping designed based on tumor volume.
The experimental indicator is to investigate whether tumor growth can be inhibited, delayed or cured. Tumor diameters were measured with vernier calipers three times a week. The formula for calculating tumor volume is: V=0.5×a×b^2, a and b represent the long and short diameters of the tumor, respectively. The antitumor effect of the compound was evaluated by T/C (%). T/C %=TRTV/CRTV×100% (TRTV: treatment group RTV; CRTV: negative comparative group RTV). The relative tumor volume RTV is calculated as RTV=Vt/V1. Where V1 is the measured tumor volume at the time of group administration (i.e., Day 1), and Vt is the tumor volume at each measurement.
The tumor volume and tumor size were analysed by statistical software. GraphPad Prism software was used for analyzation, p<0.05 is considered to have significant difference, p<0.01 is considered to have extremely significant difference.
Two-way Anova Bonferroni post-test is used to compare the tumor volume difference between the control group and the treatment group.

[4] = Body weight of MV-4-11 tumor-bearing mice during treatment; type: in vivo; conditions: intragastric QD*14, ABBV-075 3, GSK762 15, 4009 10 mg/kg
Procedure: The preparation and any revision of this experimental protocol are carried out in accordance with the evaluation criteria of the “Institute for Animal Care and Use (IACUC)” of Shanghai Chempartner Chemical Research Co., Ltd. The use and welfare of laboratory animals are carried out in accordance with the provisions of the Association for Assessment and Accreditation of Laboratory Animal Care (AAALAC). Animals are monitored daily for health and death. Routine examinations include observations of the effects of the test substance and the drug on the daily behavior of the animal such as behavioral activities, intake of water and feeds, weight change (three weights measured weekly), appearance signs or other anormal circumstance. The number of animal deaths and side effects in the group were recorded based on the number of animals in each group.

[5] = MV4-11, 72 hours, CellTiter-Glo

| Compound | IC50 (MV-4-11 cells; MV4-11, 72 h) [nM] | IC50 (SU-DHL-6 cells; SU-DHL-6, 72 h) [nM] | IC50 (BRD4 (BD1)) [nM] | IC50 (BRD4 (BD2)) [nM] | IC50 (MV-4-11 cells; [5]) [nM] | IC50 (SU-DHL-6 cells; 72 hours, CellTiter-Glo) [nM] | HLM_T1/2 [1] | CLint scaled at 1 µM [1] [mL/min/kg] | MLM_T1/2 [2] [min] | CLint scaled at 1 µM [2] [mL/min/kg] | anti-tumor effect on the MV-4-11 cell xenograft tumor mouse model ([3]; ABBV-075 3 mg/kg, GSK762 15 mg/kg, 4009 10 mg/kg) | Average tumor weight, 15th day of treatement ([3]; ABBV-075 3, GSK762 15, 4009 10 mg/kg) [g] | Average RCBW, Treatment end Day 15 ([4]; relative body weight change vs Day 1) [%] | Average body weight, Treatment end Day 15 ([4]; x ± SEM) [g] | Average body weight, Treatment start Day 1 ([4]; x ± SEM) [g] |
| --- | --- | --- | --- | --- | --- | --- | --- | --- | --- | --- | --- | --- | --- | --- | --- |
| Cc1sc2c(c1C)C(c1ccc(Cl)cc1)=N[C@@H](CC(=O)OC(C)(C)C)c1nnc(C)n1-2 [(+)-JQ1, reference compound] | 248 | 198 |  |  |  |  |  |  |  |  |  |  |  |  |  |
| Cn1cc2c(c1C(N)=O)CC(=O)N(c1ccc(F)cc1)c1ccc(CS(C)(=O)=O)cc1-2 [Compound 4001, 6-(4-fluorophenyl)-2-methyl-9-(methylsulfonemethyl)-5-oxo-2,4,5,6-tetrahydrobenzo[b]pyrrolo[3,4-d]azepin-3-carboxamide] |  |  | 124 | 25 | 1440 | 2000 |  |  |  |  |  |  |  |  |  |
| Cn1cc2c(c1C(N)=O)CCN(c1ccc(F)cc1)c1ccc(CS(C)(=O)=O)cc1-2 [Compound 4002, 6-(4-fluorophenyl)-2-methyl-9-(methylsulfonylmethyl)-2,4,5,6-tetrahydrobenzo[b]pyrrolo[3,4-d]azepin-3-carboxamide] |  |  | 26 | 47 | 1120 | 1930 | 38.19 min | 45.5 | 23.42 | 233 |  |  |  |  |  |
| Cn1cc2c(c1C#N)CC(=O)N(c1ccc(F)cc1)c1ccc(CS(C)(=O)=O)cc1-2 [Compound 4003, 6-(4-Fluorophenyl)-2-methyl-9-(methylsulfonemethyl)-5-oxo-2,4,5,6-tetrahydrobenzo[b]pyrrolo[3,4-d]azepin-3-nitrile] |  |  | 148 | 16 | 1550 | 2040 |  |  |  |  |  |  |  |  |  |
| Cn1cc2c(c1C(N)=O)CCN(c1ccc(F)cc1)c1ncc(F)cc1-2 [Compound 4005, 9-fluoro-6-(4-fluorophenyl)-2-methyl-2,4,5,6-tetrahydropyrido[2,3-b]pyrrolo[3,4-d]azepin-3-carboxamide] |  |  | 163 | 550 | > 10000 | > 10000 |  |  |  |  |  |  |  |  |  |
| Cn1cc2c(cc1=O)CN=C(c1ccc(F)cc1)c1ccc(CS(C)(=O)=O)cc1-2 [Compound 4007, 7-(4-Fluorophenyl)-2-methyl-10-(methylsulfonemethyl)-2H-benzo[c]pyrido[3,4-e]azepin-3(5H)-ketone] |  |  | 6 | 7 | 118 | 253 | ∞ |  | 815.54 | 6.69 |  |  |  |  |  |
| CCS(=O)(=O)Cc1ccc2c(c1)-c1cn(C)c(=O)cc1CN=C2c1ccc(Cl)cc1 [Compound 4011, 7-(4-chlorophenyl)-10-((ethylsulfone)methyl)-2-methyl-2,5-dihydro-3H-benzo[c]pyrido[3,4-e]Azazale-3-ketone] |  |  | 4 | 4 | 65 | 59 | 1127.52 min | 1.54 | 1056.88 | 5.16 |  |  |  |  |  |
| CCNC(=O)C[C@@H]1N=C(c2ccc(Cl)cc2)c2cc(OC)ccc2-n2c(C)nnc21 [GSK762] |  |  |  |  |  |  |  |  |  |  | no significant anti-tumor effect | 0.522 ± 0.11 | 5.07 | 21.86 ± 0.38 | 20.82 ± 0.40 |
